US20240067660A1, “MACROCYCLIC SPIROCYCLE DERIVATIVES AS MCL-1 INHIBITORS” (Janssen Pharmaceutica NV, priority 2019, published 2024)
Read-outs that look alike come from different tables or passages of the source.

Assays:
[1] = biological target: Myeloid Cell Leukemia 1(Mcl-1) (Homo sapiens (Human), UniProt Q07820); assay: Terbium labeled Mcl-1 HTRF binding assay with Cy5-labeled BIM BH3 peptide; conditions: obtained after recalibration of the equipment; averaged values over several runs
Experimental: Terbium labeled Myeloid Cell Leukemia 1(Mcl-1) homogeneous time-resolved fluorescence (HTRF) binding assay utilizing the BIM BH3 peptide (H2N-(C/Cy5Mal) WIAQELRRIGDEFN-OH) as the binding partner for Mcl-1.
This assay evaluated inhibition of the BH3 domain: Mcl-1 interaction by measuring the displacement of Cy5-labeled BIM BH3 peptide (H2N—(C/Cy5Mal) WIAQELRRIGDEFN-OH) in the HTRF assay format.
The following assay and stock buffers were prepared for use in the assay: (a) Stock buffer: 10 mM Tris-HCl, pH=7.5+150 mM NaCl, filtered, sterilized, and stored at 4° C.; and (b) 1× assay buffer, where the following ingredients were added fresh to stock buffer: 2 mM dithiothreitol (DTT), 0.0025% Tween-20, 0.1 mg/mL bovine serum albumin (BSA). The 1×Tb-Mcl-1+Cy5 Bim peptide solution was prepared by diluting the protein stock solution using the 1× assay buffer (b) to 25 pM Tb-Mcl-1 and 8 nM Cy5 Bim peptide.
Using the Acoustic ECHO, 100 nL of 100× test compound(s) were dispensed into individual wells of a white 384-well Perkin Elmer Proxiplate, for a final compound concentration of lx and final DMSO concentration of 1%. Inhibitor control and neutral control (NC, 100 nL of 100% DMSO) were stamped into columns 23 and 24 of assay plate. Into each well of the plate was then dispensed 10 μL of the 1×Tb-Mcl-1+Cy5 Bim peptide solution. The plate was centrifuged with a cover plate at 1000 rpm for 1 minute, then incubated for 60 minutes at room temperature with plates covered.
The TR-FRET signal was read on an BMG PHERAStar FSX MicroPlate Reader at room temperature using the HTRF optic module (HTRF: excitation: 337 nm, light source: laser, emission A: 665 nm, emission B: 620 nm, integration start: 60 μs, integration time: […]).
The BMG PHERAStar FSX MicroPlate Reader was used to measure fluorescence intensity at two emission wavelengths—665 nm and 620 nm—and report relative fluorescence units (RFU) for both emissions, as well as a ratio of the emissions (665 nm/620 nm)*10,000. The RFU values were normalized to percent inhibition as follows:
% inhibition=((NC−IC)−(compound−IC))/(NC−IC))*100
where IC (inhibitor control, low signal)=mean signal of 1×Tb-MCl-1+Cy5 Bim peptide+inhibitor control or 100% inhibition of Mcl-1; NC (neutral control, high signal)=mean signal 1×Tb-MCl-1+Cy5 Bim peptide with DMSO only or 0% inhibition An 11-point dose response curve was generated to determine IC50 values (using GenData) based on the following equation:
Y=Bottom+(Top−Bottom)/(1+10^((IogIC50−X)*HillSlope))
where Y=% inhibition in the presence of X inhibitor concentration; Top=100% inhibition derived from the IC (mean signal of Mcl-1+inhibitor control); Bottom=0% inhibition derived from the NC (mean signal of Mcl-1+DMSO); Hillslope=Hill coefficient; and IC50=concentration of compound with 50% inhibition in relation to top/neutral control (NC).
In this assay [L]=8 nM and Kd=10 nM

[2] = system: MOLP-8 human multiple myeloma cell line; assay: Caspase-Glo 3/7 assay in MOLP-8 cells; format: cell-based; conditions: Caspase-Glo 3/7, 2 hours incubation, averaged over all runs on all batches, read-out: MOLP8 AC50
Description: MCL-1 is a regulator of apoptosis and is highly over-expressed in tumor cells that escape cell death. The assay evaluates the cellular potency of small-molecule compounds targeting regulators of the apoptosis pathway, primarily MCL-1, Bfl-1, Bcl-2, and other proteins of the Bcl-2 family. Protein-protein inhibitors disrupting the interaction of anti-apoptotic regulators with BH3-domain proteins initiate apoptosis.
The Caspase-Glo® 3/7 Assay is a luminescent assay that measures caspase-3 and -7 activities in purified enzyme preparations or cultures of adherent or suspension cells. The assay provides a proluminescent caspase-3/7 substrate, which contains the tetrapeptide sequence DEVD. This substrate is cleaved to release aminoluciferin, a substrate of luciferase used in the production of light. Addition of the single Caspase-Glo® 3/7 Reagent in an “add-mix-measure” format results in cell lysis, followed by caspase cleavage of the substrate and generation of a “glow-type” luminescent signal.
This assay uses the MOLP-8 human multiple myeloma cell line, which is sensitive to MCL-1 inhibition.
Cell cultures were maintained between 0.2 and 2.0×10^6 cells/mL. The cells were harvested by collection in 50 mL conical tubes. The cells were then pelleted at 500 g for 5 mins before removing supernatant and resuspension in fresh pre-warmed culture medium. The cells were counted and diluted as needed.
The assay reagent was prepared by transferring the buffer solution to the substrate vial and mixing. The solution may be stored for up to 1 week at 4° C. with negligible loss of signal.
Compounds were delivered in assay-ready plates (Proxiplate) and stored at −20° C. Assays always include 1 reference compound plate containing reference compounds. The plates were spotted with 40 nL of compounds (0.5% DMSO final in cells; serial dilution; 30 μM highest conc. 1/3 dilution, 10 doses, duplicates). The compounds were used at room temperature and 4 μL of pre-warmed media was added to all wells except column 2 and 23. The negative control was prepared by adding 1% DMSO in media. The positive control was prepared by adding the appropriate positive control compound in final concentration of 60 μM in media. The plate was prepared by adding 4 μL negative control to column 23, 4 μL positive control to column 2 and 4 μL cell suspension to all wells in the plate. The plate with cells was then incubated at 37° C. for 2 hours. The assay signal reagent is the Caspase-Glo solution described above, and 8 μL was added to all wells. The plates were then sealed and measured after 30 minutes.
The activity of a test compound was calculated as percent change in apoptosis induction as follows: […]

Myeloid Cell Leukemia 1(Mcl-1), sequence (Q07820 whole entry): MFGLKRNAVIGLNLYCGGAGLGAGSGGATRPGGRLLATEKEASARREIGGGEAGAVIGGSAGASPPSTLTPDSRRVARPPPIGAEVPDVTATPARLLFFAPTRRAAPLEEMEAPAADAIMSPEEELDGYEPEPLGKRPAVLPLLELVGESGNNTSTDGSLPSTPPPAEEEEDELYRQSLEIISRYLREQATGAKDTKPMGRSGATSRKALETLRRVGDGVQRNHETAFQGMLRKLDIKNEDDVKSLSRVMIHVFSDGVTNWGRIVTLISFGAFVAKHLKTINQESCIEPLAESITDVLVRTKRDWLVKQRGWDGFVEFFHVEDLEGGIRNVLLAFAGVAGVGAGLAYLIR

SMILES	Ki [1]	AC50 [2]	AC50 ([2]; Homo sapiens, MOLP-8, 2 h)
COCC1(CO)/C(F)=C/C[C@H](C)[C@@H](C)S(=O)(=O)NC(=O)c2ccc3c(c2)N(C[C@@H]2CCN21)C[C@@]1(CCCc2cc(Cl)ccc21)CO3 (single isomer, unassigned) [Compound 39]	1.84 nM	630 nM	
COCCOCC1(CO)/C(F)=C/C[C@H](C)[C@@H](C)S(=O)(=O)NC(=O)c2ccc3c(c2)N(C[C@@H]2CCN21)C[C@@]1(CCCc2cc(Cl)ccc21)CO3 (single isomer, unassigned) [Compound 42]	0.9 nM	730 nM	
C[C@@H]1[C@@H](C)C/C=C(\F)C(CO)(CO)N2CCC[C@H]2CN2C[C@@]3(CCCc4cc(Cl)ccc43)COc3ccc(cc32)C(=O)NS1(=O)=O [Compound 35]	0.14 nM		547 nM
C[C@@H]1[C@@H](C)C/C=C(\F)[C@H](CN2CCN3CCOC[C@@H]3C2)N2CC[C@H]2CN2C[C@@]3(CCCc4cc(Cl)ccc43)COc3ccc(cc32)C(=O)NS1(=O)=O [Compound 28]	0.09 nM		120 nM
COCCOCC1(CO)/C(F)=C/C[C@H](C)[C@@H](C)S(=O)(=O)NC(=O)c2ccc3c(c2)N(C[C@@H]2CCN21)C[C@@]1(CCCc2cc(Cl)ccc21)CO3 (single isomer, unassigned) [Compound 40]	0.16 nM	194 nM	
C[C@@H]1[C@@H](C)C/C=C(\F)C(CO)(CO)N2CC[C@H]2CN2C[C@@]3(CCCc4cc(Cl)ccc43)COc3ccc(cc32)C(=O)NS1(=O)=O [Compound 36]	0.23 nM		2390 nM
C[C@@H]1[C@@H](C)C/C=C(\F)[C@H](COCCCN2CCOCC2)N2CCC[C@H]2CN2C[C@@]3(CCCc4cc(Cl)ccc43)COc3ccc(cc32)C(=O)NS1(=O)=O [Compound 34]	0.21 nM		458 nM
COCC1(COC)/C(F)=C/C[C@H](C)[C@@H](C)S(=O)(=O)NC(=O)c2ccc3c(c2)N(C[C@@H]2CCN21)C[C@@]1(CCCc2cc(Cl)ccc21)CO3 [Compound 37]	0.45 nM		253 nM
